# From patent US9546150B2, “Substituted quinazolin-4-ones for inhibiting ubiquitin specific protease 7” (HYBRIGENICS SA, priority 2011, dated 2017)
# Molecular target: T1, USP8 (Homo sapiens, UniProt P40818)
# T1 sequence (P40818 1-1118): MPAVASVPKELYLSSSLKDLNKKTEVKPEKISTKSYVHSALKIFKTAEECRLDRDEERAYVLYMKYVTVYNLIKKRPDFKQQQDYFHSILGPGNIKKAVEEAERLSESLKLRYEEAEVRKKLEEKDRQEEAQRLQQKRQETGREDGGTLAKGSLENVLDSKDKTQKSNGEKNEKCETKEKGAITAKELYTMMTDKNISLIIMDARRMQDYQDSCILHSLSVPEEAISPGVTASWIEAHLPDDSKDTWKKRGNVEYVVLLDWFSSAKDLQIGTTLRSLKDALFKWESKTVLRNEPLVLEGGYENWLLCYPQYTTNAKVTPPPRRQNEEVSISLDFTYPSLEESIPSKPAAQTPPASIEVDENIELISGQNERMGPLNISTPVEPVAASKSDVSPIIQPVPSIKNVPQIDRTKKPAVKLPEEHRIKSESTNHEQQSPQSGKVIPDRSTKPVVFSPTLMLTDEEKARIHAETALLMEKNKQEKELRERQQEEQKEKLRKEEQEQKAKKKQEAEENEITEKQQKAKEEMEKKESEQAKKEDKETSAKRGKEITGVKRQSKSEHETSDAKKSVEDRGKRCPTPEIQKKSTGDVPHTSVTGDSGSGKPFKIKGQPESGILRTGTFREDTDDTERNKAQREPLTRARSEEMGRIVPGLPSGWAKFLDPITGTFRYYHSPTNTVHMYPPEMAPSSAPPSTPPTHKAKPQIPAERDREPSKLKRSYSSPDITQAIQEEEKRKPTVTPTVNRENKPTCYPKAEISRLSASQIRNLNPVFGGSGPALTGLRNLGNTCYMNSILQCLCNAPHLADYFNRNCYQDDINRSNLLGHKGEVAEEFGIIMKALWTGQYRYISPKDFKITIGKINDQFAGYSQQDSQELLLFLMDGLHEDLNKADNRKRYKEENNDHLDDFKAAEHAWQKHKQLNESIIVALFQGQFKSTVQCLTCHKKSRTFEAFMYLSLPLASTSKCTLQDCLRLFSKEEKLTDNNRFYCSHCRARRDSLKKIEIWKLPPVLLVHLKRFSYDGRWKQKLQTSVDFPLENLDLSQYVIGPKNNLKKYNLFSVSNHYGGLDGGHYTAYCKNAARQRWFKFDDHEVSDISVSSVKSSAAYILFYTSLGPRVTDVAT
# Assay: HAUbVS competition assay in HEK293 cell lysates, USP8
# Type: biochemical
# Design: His tag (pFastBac-HT vector); made in house
# Conditions: 12.5-200 μM
# Description: The HA-Ub-VS probe (Hemagglutin tag-Ubiquitin-Vinyl Sulfone) was used in this study to directly visualize the activity of all deubiquitinating enzymes from native proteomes.
# HEK293 cells were harvested and lysed on ice with a non denaturating buffer containing Tris pH7.4, 50 mM; NaCl, 150 mM; MgCl2, 5 mM; EDTA, 0.5 mM; DTT, 2 mM; ATP (adenosine triphosphate), 2 mM; NP40 (nonyl phenoxypolyethoxylethanol), 0.5% and glycerol, 10%. Samples were incubated at 4° C. for 1 hour and clarified. Proteins were then quantified by Bradford method (Bio-Rad Protein Assay). […] The ubiquitin labeling reaction was initiated by the addition of HA-Ub-VS (8 μg/ml) in labeling buffer (Tris pH7.6, 50 mM; MgCl2, 5 mM; EDTA, 0.5 mM; DTT, 2 mM; ATP, 2 mM; sucrose, 250 mM) and incubated at room temperature for 15 min. Samples were next heated at 100° C. for 10 minutes and briefly sonicated. They were resolved by SDS-polyacrylamide gel electrophoresis (SDS-PAGE), transferred to a nitrocellulose membrane and probed with antibodies against USP7, HA, UCH-L3, CYLD, USP8, USP5, USP10 and Stat3. […] Signals were detected by enhanced chemiluminescence (ECL; Amersham) according to the reagent manufacturer's instructions.
structure (smiles),measurement,value
"CC(Cc1cccs1)C(=O)N1CCC(O)(Cn2cnc3ccccc3c2=O)CC1 (stereo not shown) [Example 5, 3-({4-hydroxy-1-[2-methyl-3-(thiophen-2-yl)propanoyl]piperidin-4-yl}methyl)-3,4-dihydroquinazolin-4-one]",blocking of HAUbVS labeling of USP8,without any cross-reaction
